Patent US6677309B1, “Anti-cancer drug aldehyde conjugate drugs with enhanced cytotoxicity compounds, compositions and methods” (University Technology Corporation, priority 1997, dated 2004)
Read-outs that look alike come from different tables or passages of the source.

Assays:
MCF-7 cells = assay: In vitro cytotoxicity, colony formation by crystal violet assay, MCF-7
Experimental: (§1) The term IC50 as used herein refers to the concentration of drug which inhibits cell growth by 50%, i.e., 50% of cells are viable at the IC50 concentration relative to a no-drug control.
(§2) Cells were incubated with drug for 3 h in RPMI (Roswell Park Memorial Institute) 1640 media containing 10% fetal bovine serum and 1% DMSO. Plates, were developed using the crystal violet assay. […] In all cases percent survival was determined by the extent of colony formation six days after drug treatment.
(§3) All tissue culture materials were obtained from Gibco Life Technologies (Grand Island, N.Y.) unless otherwise stated. MCF-7 breast cancer cells were obtained from American Type Culture Collection (Rockville, Md.). […] Both cell lines were maintained in vitro by serial culture in phenol red-free RPMI Media 1640 supplemented with 10% fetal bovine serum (Gemini Bio-Products, Calbasas, Calif.), L-glutamine (2 mM), HEPES buffer (10 mM), penicillin (100 units/mL), and streptomycin (100 μg/mL). […] Cells were maintained at 37° C. in a humidified atmosphere of 5% CO2 and 95% air.
(§4) Cells were dissociated with trypsin-EDTA, counted, and suspended in growth media to a concentration of 5×10^3 cells/mL. Cell suspensions were dispensed in 200 μL aliquots into 96-well tissue culture plates. Plates were then incubated for 24 h at 37° C. in a humidified atmosphere of 5% CO2 and 95% air. The media was replaced with 180 μL of growth media prior to addition of the cytotoxic agents.
(§5) Concentrations were then corrected by measuring the solution absorbance at 480 nm (ε=11,500/mole anthracycline). The solutions were then serially diluted in DMSO to give a series of 100× working concentration solutions. For each concentration, the 100× solution was diluted 1:10 in serum-free RPMI Media 1640. 20 μL of the resulting […] solution was immediately added to the appropriate lane. Additionally, one lane was treated with 20 μL of 10% DMSO in serum-free RPMI (no drug) and one lane replaced with 200 μL of 1.5 M Tris buffer (no cells). The cells were incubated at 37° C. for 3 h. The drug solutions were removed and 200 μL of fresh growth media was added to each well.
(§6) The extent of colony formation was determined by use of a crystal violet staining assay (Gilles, R. J. et al. (1986), “Determination of cell number in monolayer cultures,” Anal. Biochem. 159:109-113; Reile, H. et al. (1990), “Computerized determination of growth kinetic curves and doubling times from cells in microcultures,” Anal. Biochem. 187:262-267). […] The cells were then stained with 75 μL of 0.1% crystal violet in deionized water for 30 min. […] The plates were blotted dry and 200 μL of 70% ethanol in water was added to each well to solublize the dye. The plates were stored at 4° C. until solubilization was complete (about 4 h). The optical density of each well was measured on an ELISA plate reader at 588 nm. Relative colony sizes were determined by comparison of the drug treated lanes to the control lanes.
(§7) MCF-7 breast cancer cells were obtained from American Type Culture Collection (Rockville, Md.). MCF-7/ADR adriamycin resistant breast cancer cells were a gift of Dr. William W. Wells (Michigan State University). Both cell lines were maintained in vitro by serial culture in phenol red-free RPMI Media 1640 supplemented with 10% fetal bovine serum (Gemini Bio-Products, Calbasas, Calif.), L-glutamine (2 mM), HEPES buffer ([…]), penicillin (100 units/mL), and streptomycin (100 μg/mL). […] Cells were maintained at 37° C. in a humidified atmosphere of 5% CO2 and 95% air.
1640 media containing 10% fetal bovine serum. The resulting 90% media/10% DMSO solutions (v/v) were incubated at 37° C. for 6h.

MCF-7/ADR cells = assay: In vitro cytotoxicity, colony formation by crystal violet assay, MCF-7/ADR
Experimental: as §1, §2, §3, §4, §5, §6, §7
These were then diluted 10× with autoclaved Millipore water.

LNCaP = assay: Prostate cancer cell cytotoxicity, crystal violet assay, LNCaP; type: cell-based, human
Experimental: (§8) Toxicity to the three prostate cancer cell lines, LNCaP, DU-145, and PC-3 were measured in two different media, RPMI-1640 and DMEM (Dulbecco's Modified Eagle Medium), both supplemented with 10% fetal bovine serum.
(§9) Cell lines were maintained in vitro in RPMI 1640 media or DMEM, each supplemented with 10% fetal bovine serum, 2 mM L-glutamine, 10 mM HEPES buffer, penicillin (100 units/mL) and streptomycin (100 μg/mL).
(§10) Cells were dissociated with trypsin/EDTA, counted, and suspended in growth media (RPMI or DMEM) to a concentration of 5.6×10^3 cells/mL. Cell suspensions were dispensed in 180 μL aliquots into 96-well tissue culture plates. […] Each 100× solution was diluted 10× in growth media (RPMI or DMEM), and a 20 μL aliquot of the resulting 10× solution was immediately (<10s) added to-the appropriate lane. Additionally, one lane was treated with 20 μL of 10% DMSO in growth media (no drug) and one lane was treated with 200 μL of 1.5 M Tris buffer (no cells). The cells were incubated with the drugs for 3 h at 37° C. The drug solutions were then removed and replaced with 200 μL of fresh media. The cells were incubated for 4 days (7 days for PC-3 cells in DMEM) at 37° C. in a humidified atmosphere of 5% CO2 and 95% air. Cell survival was determined using a crystal violet assay as described earlier (Fenick, D. J. et al (1997) J. Med. Chem. 40: 2452-2461).

DU-145 = assay: Prostate cancer cell cytotoxicity, crystal violet assay, DU-145; type: cell-based, human
Experimental: as §8, §9, §10

PC-3 = assay: Prostate cancer cell cytotoxicity, crystal violet assay, PC-3; type: cell-based, human
Experimental: as §8, §9, §10

[1] = system: self-complementary DNA octamer (GC)4; assay: Drug-DNA conjugate formation with (GC)4, HPLC; type: biochemical; details: 5 h
Experimental: The amount of available formaldehyde was 99 μM (3×33 μM). […] The experiment was also run at 25° C. in pH 6.0 phosphate buffer containing 4% DMSO. […] The ratio for conjugate 1 was assumed to be 24:1, based upon the value for conjugate 2. […] Under these circumstances, the conjugate 1 area was estimated based upon its 480 nm absorbance, assuming the 24:1 ratio for A260:A480.
The formation of drug-DNA conjugates at 25° C. was monitored by HPLC (Method II). […] The experiment was also run in pH 6.0 phosphate buffer containing 4% DMSO.

[2] = Homo sapiens, MCF7, read-out: IC50 Values, MCF-7
[3] = Homo sapiens, NCI/ADR-RES, read-out: IC50 Values, MCF-7-ADR
[4] = Homo sapiens, LNCaP, DMEM with 10% fetal bovine serum, 3 h drug, 4 days growth, read-out: IC50 Values, LNCaP/DMEM (converted)
[5] = Homo sapiens, LNCaP, RPMI-1640 with 10% fetal bovine serum, 3 h drug, 4 days growth, read-out: IC50 Values, LNCaP/RPMI-1640 (converted)
[6] = Homo sapiens, DU-145, DMEM with 10% fetal bovine serum, 3 h drug, 4 days growth, read-out: IC50 Values, DU-145/DMEM (converted)
[7] = Homo sapiens, PC-3, DMEM with 10% fetal bovine serum, 3 h drug, 7 days growth, read-out: IC50 Values, PC-3/DMEM (converted)
[8] = Homo sapiens, PC-3, RPMI-1640 with 10% fetal bovine serum, 3 h drug, 4 days growth, read-out: IC50 Values, PC-3/RPMI-1640 (converted)

SMILES: COc1cccc2c1C(=O)c1c(O)c3c(c(O)c1C2=O)C[C@@](O)(C(C)=O)C[C@@H]3O[C@H]1C[C@H](N)[C@H](O)[C@H](C)O1 [DAUN, daunorubicin, reference compound]
- IC50 (MCF-7 cells; [2]): 60 nM
- IC50 (MCF-7/ADR cells; [3]): 2000 nM
- IC50 (LNCaP; Homo sapiens, LNCaP, read-out: IC50 Values, LNCaP/DMEM): 8 nM
- IC50 (LNCaP; Homo sapiens, LNCaP, read-out: IC50 Values, LNCaP/RPMI-1640): 20 nM
- IC50 (DU-145; Homo sapiens, DU-145, read-out: IC50 Values, DU-145/DMEM): 25 nM
- IC50 (DU-145; Homo sapiens, DU-145, read-out: IC50 Values, DU-145/RPMI-1640): 100 nM
- IC50 (PC-3; Homo sapiens, PC-3, read-out: IC50 Values, PC-3/DMEM): 20 nM
- IC50 (PC-3; Homo sapiens, PC-3, read-out: IC50 Values, PC-3/RPMI-1640): 20 nM

SMILES: COc1cccc2c1C(=O)c1c(O)c3c(c(O)c1C2=O)C[C@@](O)(C(=O)CO)C[C@@H]3O[C@H]1C[C@H](N)[C@@H](O)[C@H](C)O1 [EPI, epidoxorubicin, reference compound]
- IC50 (MCF-7 cells; [2]): 200 nM
- IC50 (MCF-7 cells; Homo sapiens, MCF7, read-out: IC50 Values, MCF-7, Media/Serum): > 10000 nM
- IC50 (MCF-7/ADR cells; [3]): > 10000 nM
- IC50 (LNCaP; [4]): 20 nM
- IC50 (LNCaP; [5]): 20 nM
- IC50 (DU-145; [6]): 40 nM
- IC50 (PC-3; [7]): 60 nM
- IC50 (PC-3; [8]): 30 nM
- DNA reacted to form drug-DNA conjugates ([1]; 33 μM (GC)4, 66 μM epidoxorubicin plus 99 μM formaldehyde, pH 6.0, 4% DMSO): 51%
- DNA reacted to form drug-DNA conjugates ([1]; 33 μM (GC)4, 66 μM epidoxorubicin plus 99 μM formaldehyde, pH 7.3, 4% DMSO, 25° C.): 75%
- DNA reacted to form drug-DNA conjugates ([1]; 166 μM (GC)4, 664 μM epidoxorubicin plus 996 μM HCHO, pH 7.3, 4% DMSO, 25° C.): 93%

SMILES: COc1cccc2c1C(=O)c1c(O)c3c(c(O)c1C2=O)C[C@@](O)(C(=O)CO)C[C@@H]3O[C@H]1C[C@H](N)[C@H](O)[C@H](C)O1 [DOX, doxorubicin, reference compound]
- IC50 (MCF-7/ADR cells; [3]): 10000 nM
- IC50 (LNCaP; [4]): 15 nM
- IC50 (LNCaP; [5]): 20 nM
- IC50 (DU-145; [6]): 60 nM
- IC50 (PC-3; [7]): 60 nM
- IC50 (PC-3; [8]): 30 nM

SMILES: COc1cccc2c1C(=O)c1c(O)c3c(c(O)c1C2=O)C[C@@](O)(C(=O)CO)C[C@@H]3O[C@H]1C[C@H]2[C@@H](OCN3CN2CO[C@H]2[C@H](C)O[C@@H](O[C@H]4C[C@](O)(C(=O)CO)Cc5c(O)c6c(c(O)c54)C(=O)c4c(OC)cccc4C6=O)C[C@@H]23)[C@H](C)O1 [EPIF]
- IC50 (MCF-7 cells; read-out: IC50 Values, MCF-7, Media/Serum, drug preincubated 6 h at 37° C. in 10% DMSO/90% RPMI 1640 containing 10% fetal bovine serum): 200 nM
- IC50 (MCF-7 cells; read-out: IC50 Values, MCF-7, 3 h drug incubation in RPMI 1640, 10% fetal bovine serum, 1% DMSO, colony formation six days after treatment, fresh drug solution): 32.5 nM
- IC50 (MCF-7/ADR cells; read-out: IC50 Values, MCF-7-ADR, EPIF/DMSO, drug stored in DMSO (not dried) for 20 h at ambient temperature before treatment): 150 nM
- IC50 (MCF-7/ADR cells; read-out: IC50 Values, MCF-7-ADR, EPIF/H2O, drug preincubated in 90% H2O/10% DMSO at 37° C. for 20 h (equilibrium mixture with intermediates B, C, D)): 200 nM
- IC50 (MCF-7/ADR cells; read-out: IC50 Values, MCF-7-ADR, 3 h drug incubation in RPMI 1640, 10% fetal bovine serum, 1% DMSO, colony formation six days after treatment, fresh drug solution): 35 nM
- IC50 (MCF-7/ADR cells; read-out: IC50 Values, MCF-7/ADR, Media/Serum, drug preincubated 6 h at 37° C. in 10% DMSO/90% RPMI 1640 containing 10% fetal bovine serum): 150 nM
- IC50 (LNCaP; DMEM with 10% fetal bovine serum, 3 h drug, 4 days growth, read-out: IC50 Values, LNCaP/DMEM (converted)): 1 nM
- IC50 (LNCaP; RPMI-1640 with 10% fetal bovine serum, 3 h drug, 4 days growth, read-out: IC50 Values, LNCaP/RPMI-1640 (converted)): 3.5 nM
- IC50 (DU-145; DMEM with 10% fetal bovine serum, 3 h drug, 4 days growth, read-out: IC50 Values, DU-145/DMEM (converted)): 4 nM
- IC50 (DU-145; RPMI-1640 with 10% fetal bovine serum, 3 h drug, 4 days growth, read-out: IC50 Values, DU-145/RPMI-1640 (converted)): 15 nM
- IC50 (PC-3; DMEM with 10% fetal bovine serum, 3 h drug, 7 days growth, read-out: IC50 Values, PC-3/DMEM (converted)): 15 nM
- IC50 (PC-3; RPMI-1640 with 10% fetal bovine serum, 3 h drug, 4 days growth, read-out: IC50 Values, PC-3/RPMI-1640 (converted)): 3.5 nM

SMILES: C=O [formaldehyde, reference compound]
- IC50 (MCF-7 cells; Homo sapiens, MCF7, read-out: IC50 value, control experiment, MCF-7): > 200000 nM
- IC50 (MCF-7/ADR cells; Homo sapiens, NCI/ADR-RES, read-out: IC50 value, control experiment, MCF-7/ADR): > 200000 nM
